PubChem BioAssay (NCI)
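Grown in 96-well plates, cells were treated for 48 hours with each compound at five concentrations. Insufficient inhibition: endpoint recorded as highest concentration tested. The concentration for full growth arrest is given as TGI.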

How the values were obtained:
Test in all cases: NCI-60 cell line screen, 48 h
[1] = system: OVCAR-3 ovarian
[2] = system: SF-268 CNS
[3] = system: CAKI-1 renal
[4] = system: HOP-92 NSCLC
[5] = system: HCT-15 colon
[6] = system: K-562 leukemia
[7] = system: MDA-N
[8] = system: SK-OV-3 ovarian
[9] = system: IGROV1 ovarian
[10] = system: NCI-H23 lung
[11] = system: EKVX NSCLC
[12] = system: HS 578T breast
[13] = system: U251 CNS
[14] = system: A498 renal
[15] = system: 786-0 renal
[16] = system: MCF7 breast
[17] = system: SK-MEL-28 melanoma
[18] = system: TK-10 renal
[19] = system: HCT-116 colon
[20] = system: CCRF-CEM leukemia
[21] = system: OVCAR-5 ovarian
[22] = system: SF-539 CNS
[23] = system: ACHN renal
[24] = system: NCI-H460 lung
[25] = system: SR leukemia
[26] = system: MDA-MB-231 breast
[27] = system: M14 melanoma
[28] = system: UACC-62 melanoma
[29] = system: A549 NSCLC
[30] = system: NCI-H226 lung
[31] = system: SF-295 CNS
[32] = system: MOLT-4 leukemia
[33] = system: HT29 colon
[34] = system: HCC-2998 colon
[35] = system: LOX IMVI melanoma
[36] = system: RXF 393 renal
[37] = system: MALME-3M melanoma
[38] = system: UO-31 renal
[39] = system: RPMI-8226 leukemia
[40] = system: OVCAR-4 ovarian
[41] = system: SK-MEL-5 melanoma
[42] = system: OVCAR-8 ovarian
[43] = system: UACC-257 melanoma
[44] = system: T-47D breast
[45] = system: SK-MEL-2 melanoma
[46] = system: PC-3 prostate
[47] = system: NCI/ADR-RES ovarian
[48] = system: HL-60(TB) leukemia
[49] = system: NCI-H522 lung
[50] = system: KM12 colon
[51] = system: SN12C renal
[52] = system: SW-620 colon
[53] = system: COLO 205 colon
[54] = system: HOP-62 NSCLC
[55] = system: SNB-19 CNS
[56] = system: MDA-MB-435
[57] = system: DU-145 prostate
[58] = system: BT-549 breast

With CCCCCCc1nn2c(-c3ccncc3)nnc2s1 the TGI [1] was greater than 10 µM, the TGI [2] was greater than 10 µM and the TGI [3] was greater than 10 µM. For the same compound, the TGI [4] was greater than 10 µM, the TGI [5] was greater than 10 µM and the TGI [6] was greater than 10 µM. The TGI [7] was greater than 10 µM, the TGI [8] was greater than 10 µM and the TGI [9] was greater than 10 µM. For the same compound, the TGI [10] was greater than 10 µM, the TGI [11] was greater than 10 µM and the TGI [12] was greater than 10 µM. It also gave a TGI [13] greater than 10 µM, a TGI [14] greater than 10 µM and a TGI [15] greater than 10 µM. For the same compound, the TGI [16] was greater than 10 µM, the TGI [17] was greater than 10 µM and the TGI [18] was greater than 10 µM. It also gave a TGI [19] greater than 10 µM, a TGI [20] greater than 10 µM and a TGI [21] greater than 10 µM. For the same compound, the TGI [22] was greater than 10 µM, the TGI [23] was greater than 10 µM and the TGI [24] was greater than 10 µM. The TGI [25] was greater than 10 µM, the TGI [26] was greater than 10 µM and the TGI [27] was greater than 10 µM. The TGI [28] was greater than 10 µM, the TGI [29] was greater than 10 µM and the TGI [30] was greater than 10 µM. For the same compound, the TGI [31] was greater than 10 µM, the TGI [32] was greater than 10 µM and the TGI [33] was greater than 10 µM. It also gave a TGI [34] greater than 10 µM, a TGI [35] greater than 10 µM and a TGI [36] greater than 10 µM. For the same compound, the TGI [37] was greater than 10 µM, the TGI [38] was 2.89 µM and the TGI [39] was greater than 10 µM. The TGI [40] was greater than 10 µM, the TGI [41] was greater than 10 µM and the TGI [42] was greater than 10 µM. The TGI [43] was greater than 10 µM, the TGI [44] was greater than 10 µM and the TGI [45] was greater than 10 µM. For the same compound, the TGI [46] was greater than 10 µM, the TGI [47] was greater than 10 µM and the TGI [48] was greater than 10 µM. It also gave a TGI [49] greater than 10 µM, a TGI [50] greater than 10 µM and a TGI [51] greater than 10 µM. For the same compound, the TGI [52] was greater than 10 µM, the TGI [53] was greater than 10 µM and the TGI [54] was greater than 10 µM. It also gave a TGI [55] greater than 10 µM, a TGI [56] greater than 10 µM and a TGI [57] greater than 10 µM. The TGI [58] was greater than 10 µM.

For O=C1c2ccc(O)cc2OC(c2cc(O)c(O)c(O)c2)C1O (stereo not drawn), the TGI [1] was greater than 100 µM, the TGI [2] was greater than 100 µM and the TGI [3] was greater than 100 µM. For the same compound, the TGI [4] was greater than 100 µM, the TGI [5] was greater than 100 µM and the TGI [7] was 34 µM. It also gave a TGI [8] greater than 100 µM, a TGI [9] of 39.1 µM and a TGI [10] greater than 100 µM. For the same compound, the TGI [11] was 39.3 µM, the TGI [12] was greater than 100 µM and the TGI [13] was 48.7 µM. The TGI [14] was 73.5 µM, the TGI [15] was 45.4 µM and the TGI [16] was 51.9 µM. The TGI [17] was greater than 100 µM, the TGI [18] was 69.3 µM and the TGI [19] was 41 µM. It also gave a TGI [20] of 55.9 µM, a TGI [21] greater than 100 µM and a TGI [22] of 52.7 µM. It also gave a TGI [23] of 48.9 µM, a TGI [24] of 39.5 µM and a TGI [25] of 56.5 µM. The TGI [26] was 39.7 µM, the TGI [27] was greater than 100 µM and the TGI [28] was greater than 100 µM. It also gave a TGI [29] greater than 100 µM, a TGI [30] greater than 100 µM and a TGI [31] of 39.9 µM. It also gave a TGI [32] of 51.7 µM, a TGI [33] of 43.9 µM and a TGI [34] greater than 100 µM. It also gave a TGI [35] of 38.5 µM, a TGI [36] greater than 100 µM and a TGI [37] greater than 100 µM. It also gave a TGI [38] greater than 100 µM, a TGI [39] of 48.6 µM and a TGI [40] greater than 100 µM. It also gave a TGI [41] greater than 100 µM, a TGI [42] of 38.4 µM and a TGI [43] greater than 100 µM. The TGI [44] was 85.9 µM, the TGI [45] was greater than 100 µM and the TGI [46] was greater than 100 µM. It also gave a TGI [47] of 52.9 µM, a TGI [48] of 48.4 µM and a TGI [49] of 58.7 µM. The TGI [50] was 67.1 µM, the TGI [51] was 36.6 µM and the TGI [52] was 70.3 µM. It also gave a TGI [53] of 83.3 µM, a TGI [54] greater than 100 µM and a TGI [55] greater than 100 µM. The TGI [56] was 43.2 µM, the TGI [57] was greater than 100 µM and the TGI [58] was 48 µM.

CN1CCN(CC(=O)Nc2cccc3ccccc23)CC1 was tested, and the TGI [1] was greater than 100 µM, the TGI [2] was greater than 100 µM and the TGI [3] was greater than 100 µM. It also gave a TGI [4] greater than 100 µM, a TGI [5] greater than 100 µM and a TGI [6] greater than 100 µM. It also gave a TGI [7] greater than 100 µM, a TGI [8] greater than 100 µM and a TGI [9] greater than 100 µM. The TGI [10] was greater than 100 µM, the TGI [11] was greater than 100 µM and the TGI [12] was greater than 100 µM. The TGI [13] was greater than 100 µM, the TGI [14] was greater than 100 µM and the TGI [15] was greater than 100 µM. It also gave a TGI [16] greater than 100 µM, a TGI [17] greater than 100 µM and a TGI [18] greater than 100 µM. For the same compound, the TGI [19] was greater than 100 µM, the TGI [20] was greater than 100 µM and the TGI [21] was greater than 100 µM. It also gave a TGI [22] greater than 100 µM, a TGI [23] greater than 100 µM and a TGI [24] greater than 100 µM. For the same compound, the TGI [25] was greater than 100 µM, the TGI [26] was greater than 100 µM and the TGI [27] was greater than 100 µM. It also gave a TGI [28] greater than 100 µM, a TGI [29] greater than 100 µM and a TGI [30] greater than 100 µM. The TGI [31] was greater than 100 µM, the TGI [32] was greater than 100 µM and the TGI [33] was greater than 31.6 µM. It also gave a TGI [34] greater than 100 µM, a TGI [35] greater than 100 µM and a TGI [36] greater than 100 µM. It also gave a TGI [37] greater than 100 µM, a TGI [38] greater than 100 µM and a TGI [39] greater than 100 µM. It also gave a TGI [40] greater than 100 µM, a TGI [41] greater than 100 µM and a TGI [42] greater than 100 µM. The TGI [43] was greater than 100 µM, the TGI [44] was greater than 100 µM and the TGI [45] was greater than 100 µM. It also gave a TGI [46] greater than 100 µM, a TGI [47] greater than 100 µM and a TGI [48] greater than 100 µM. It also gave a TGI [49] greater than 100 µM, a TGI [50] greater than 100 µM and a TGI [51] greater than 100 µM. For the same compound, the TGI [52] was greater than 100 µM, the TGI [53] was greater than 100 µM and the TGI [54] was greater than 100 µM. For the same compound, the TGI [55] was greater than 100 µM, the TGI [56] was greater than 100 µM and the TGI [57] was greater than 100 µM. For the same compound, the TGI [58] was greater than 100 µM.
